Each block holds one compound with its values, some of them ahead of it.
What was measured:
HUVEC = assay: TER of HUVEC monolayers on gold-plated electrodes (endothelial barrier function); type: cell-based; settings: for course of barrier function (TER) over time / restoration of barrier function (TER) after alcohol: 50 mM alcohol, 10 min later 1 μM compound
Procedure: (§1) FIGS. 3A-3D. Alcohol-induced endothelial barrier dysfunction in cultured endothelial cell monolayers. FIG. 3A: Time-course of changes in transepithelial electrical resistance (TER) of HUVEC monolayers following application of vehicle (water) or 20, 50, or 100 mM alcohol. FIG. 3B: Time course of alcohol-induced changes in TER in HMVEC-C monolayers. FIG. 3C: The mean maximum alcohol-induced changes in TER in HUVEC. FIG. 3D: Mean maximum alcohol-induced changes in TER in HMVEC-c. *P<0.05 and **P<0.01 vs. vehicle. One-way ANOVA followed by Dunnett's test, all groups, N=4.
FIGS. 6A and 6B. Alcohol-induced barrier dysfunction in HUVEC was resolved faster by S1P treatment. HUVEC were cultured to confluence on gold-plated electrodes and then serum starved for 1-2 hours. Following 30 minutes of baseline TER measurements, alcohol was added to the wells to a final concentration of 50 mM for 5 minutes before treatment with 1 μM of […] or vehicle. FIG. 6A: Time course of changes in HUVEC monolayer TER in response to 50 mM alcohol, followed by addition of 1 μM S1P 5 min later, or vehicle (PBS) 5 min later. FIG. 6B: Mean recovery time for HUVEC, i.e., time to return to baseline TER, starting from the time point immediately preceding alcohol was added. **P<0.01 versus alcohol/vehicle group. Statistical analysis by t-test; all HUVEC groups, N=8.
(§2) FIGS. 10A-10C. Selective S1P1R agonist FTY720-phosphonate ameliorates alcohol-induced microvascular hyperpermeability. FTY720 and its analogs reverse alcohol-induced disruption of EC monolayer barrier function. In all panels, 50 mM alcohol or vehicle was applied first, and 10 min later, 1 μM of FTY720 (FIG. 10A) FTY720-P (FIG. 10B) or FTY720 (S)-phosphonate (FIG. 10C) or vehicle was added. […] A minimum of N=4 monolayers in each group.
(§3) The direct impact of alcohol on endothelial barrier function was tested using cultured HUVEC or HMVEC-c confluent monolayers grown on gold-plated electrodes. Thirty minutes of baseline transepithelial electrical resistance (TER) measurements were recorded before the cells were treated with alcohol at final bath concentrations of 20, 50 or 100 mM. Alcohol was added directly into the MEDIA within the wells. […] The decrease in TER was alcohol concentration-dependent with high alcohol concentrations eliciting a larger drop in TER. The maximal decline in TER from baseline was significant for the 50 and 100 mM concentrations in both HUVEC (FIG. 3C) and HMVEC-c (FIG. 3D).
The inventors next set out to determine if S1P could similarly reduce the recovery time for TER to be reestablished to baseline in HUVEC pretreated with alcohol. Following 30 minutes of baseline TER measurements, alcohol was added to the wells to a final concentration of 50 mM for 5 minutes before treatment with 1 μM S1P or vehicle.
(§4) FIGS. 10A-C show TER data. TER is an index of the barrier function of endothelial cells. […] Unlike S1P, which restored the barrier in about 5 min (see FIG. 6A), FTY720 restored barrier function occurred gradually (FIG. 10A).

endothelial barrier = settings: in vitro; cited from earlier work
S1P1R = S1P1R (Homo sapiens, UniProt P21453); settings: cited from earlier work
Sequence of S1P1R (P21453 whole entry): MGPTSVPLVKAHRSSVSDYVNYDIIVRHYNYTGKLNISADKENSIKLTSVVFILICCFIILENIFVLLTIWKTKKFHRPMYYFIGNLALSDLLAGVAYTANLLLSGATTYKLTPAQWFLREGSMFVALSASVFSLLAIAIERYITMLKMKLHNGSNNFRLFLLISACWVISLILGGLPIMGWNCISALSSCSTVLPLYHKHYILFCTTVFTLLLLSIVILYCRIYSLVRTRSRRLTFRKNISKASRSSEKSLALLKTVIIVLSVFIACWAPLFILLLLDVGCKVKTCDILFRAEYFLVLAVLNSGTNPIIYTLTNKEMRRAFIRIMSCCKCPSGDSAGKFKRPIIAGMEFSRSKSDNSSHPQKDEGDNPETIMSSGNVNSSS

[1] = combined hemorrhage and trauma (laparotomy), anesthetized rats; cited from earlier work
[2] = swine, uncontrolled hemorrhage; cited from earlier work
[3] = 0.5 mg/kg; anesthetized rats; several hours after administration; cited from earlier work
[4] = tested on: microvascular hyperpermeability; settings: in vivo; cited from earlier work
[5] = multiple sclerosis patients; cited from earlier work
HMVEC-c = assay: TER of HMVEC-c / cardiac microvascular EC monolayers; type: cell-based
Procedure: as §1, §2, §3, §4

[6] = tested on: mesenteric microcirculation; assay: IVM of FITC-albumin extravasation in the rat mesenteric microcirculation; type: in vivo, Sprague-Dawley rats
Procedure: FIGS. 2A-2D. […] FIG. 2C: Mean maximum change in IOI in the extravascular space from the initial baseline just after FITC-albumin was injected i.v. to the end of the IVM experiment. FIG. 2D: Mean mesenteric arteriolar diameter in the observed microvascular beds. *P<0.05, alcohol vs. water. Mann-Whitney U-test, N=5 rats studied for the water group, and N=8 rats studied for the alcohol group.
FIGS. 7A-7C. […] White circles highlight areas of FITC-Albumin fluorescence in the surrounding interstitium. White arrows indicate areas of FITC-Albumin accumulation resulting in hotspots of fluorescence within and just outside the vessel walls. […] FIG. 7C: Mean maximum change in IOI in the extravascular space, from the initial baseline just after FITC-albumin was injected i.v. **P<0.01, Alcohol-Sham. Statistical analysis by t-test; both treatment groups, N=8.
S1P has been used to reduce the permeability of rat microvessels to BSA, however, only one study has been performed in intact animals. Using the inventors' established method of observing hyperpermeability in the rat mesentery, the ability of S1P to abolish or attenuate the enhanced extravasation of FITC-albumin caused by acute alcohol intoxication was examined. After receiving a 2.5 g/kg bolus of alcohol and allowed free roaming for 30 minutes, rats were prepared for IVM and administered S1P to a final concentration of 2 μM within the FITC-albumin infusion. This provided an estimated final plasma concentration of S1P in the rats of 0.2 μM.

[7] = MAP during fixed-pressure hemorrhage and resuscitation (HSR) protocol; type: in vivo, Sprague-Dawley rats
[8] = MAP during IVM following HSR; type: in vivo, Sprague-Dawley rats; settings: alcohol-intoxicated rats; 0.1 mg/kg S1P during resuscitation; 30 minutes IVM; only 3 experiments
Procedure: The time-course of changes in MAP of Sprague-Dawley rats treated with alcohol, water, or alcohol and 0.1 mg/kg S1P within the resuscitation fluid during the IVM stage.
As before, immediately following completion of the HSR protocol the animal was anesthetized and prepped for IVM. During IVM, MAP is continually monitored. […] At the time of writing this, only 3 IVM experiments were performed with alcohol-intoxicated animals that received S1P during resuscitation.

[9] = tested on: mesenteric microcirculation
From the text: FIG. 5A: Representative fluorescent image of the mesenteric microcirculation of a rat that received water and undergoing sham-HSR illustrating that FITC-albumin was present mainly inside the lumen of microvessels. […] FIG. 5C: Representative image of the mesenteric microcirculation of a water-treated rat that underwent HSR. FIG. 5D: Representative image of the mesenteric microcirculation of an alcohol-treated rat that underwent HSR.
Immediately following completion of the HSR protocol the animal was anesthetized and prepped for IVM. […] This extravasation was quantified by calculating the mean 60-minute RM.

[10] = Blood alcohol concentration after intragastric alcohol; settings: 30 minutes after 2.5 g/kg alcohol vs time-matched water-treated groups
Procedure: Blood alcohol concentrations (BAC) 30 minutes after administration of 2.5-g/kg alcohol or isovolumic water. Intragastric catheters were implanted 2-3 days before the day of experiments. Male Sprague-Dawley rats were administered 2.5 g/kg alcohol or isovolumic water and allowed to freely roam in their cages for 30 minutes. Following 30 minutes incubation, experimental protocols were begun and blood samples obtained.
Administration of a 2.5-g/kg dose of alcohol was performed via an intragastric catheter that was implanted 2-3 days before the day of experiment. The animals were allowed to roam freely for 30 minutes after administration.

[11] = cardiac microvascular EC, 50 mM alcohol, 10 min later 1 μM compound
[12] = alcohol-intoxicated rats (2.5 g/kg), S1P in the FITC-albumin infusion, estimated plasma 0.2 μM
[13] = 2.5 g/kg alcohol vs water-treated animals

Compound: CCCCCCCCc1ccc(CC[C@@](N)(CO)CCP(=O)(O)O)cc1 [FTY720 (S)-phosphonate, (S)-3-amino-3-(hydroxymethyl)-5-(4-octylphenyl)pentylphosphonic acid]
course of barrier function (TER) over time (HUVEC): sustained enhancement of barrier integrity over time
restoration of barrier function (TER) after alcohol (HUVEC): rapid rescue of barrier function, rising above baseline levels
endothelial barrier function (endothelial barrier): longer-lasting endothelial barrier enhancement
S1P1R turnover (S1P1R): limits this S1P1R turnover

Compound: CCCCCCCCc1ccc(CCC(N)(CO)CO)cc1 [FTY720, 2-amino-2-(4-octylphenethyl)propane-1,3-diol]
course of barrier function (TER) over time (HUVEC): gradually
restoration of barrier function (TER) after alcohol (HUVEC): accelerated its restoration to the baseline level
hypotension and lung injury [1]: reduced
survival [2]: improved survival
baseline blood pressure [3]: reduced baseline blood pressure
endothelial barrier function (endothelial barrier): enhances endothelial barrier function
VEGF- and histamine-induced microvascular hyperpermeability [4]: reduces
S1P1R turnover (S1P1R): can cause proteasome-mediated turnover of S1P1R
rate of clinical relapses [5]: reduce the rate of clinical relapses

Compound: CCCCCCCCc1ccc(CC[C@](N)(CO)COP(=O)(O)O)cc1 [FTY720-P]
course of barrier function (TER) over time (HMVEC-c; [11]): overshoot over the original baseline, followed by a gradual drop over time
restoration of barrier function (TER) after alcohol (HMVEC-c; [11]): much more rapid elevation in barrier function

Compound: CCCCCCCCCCCCC/C=C/[C@@H](O)[C@@H](N)COP(=O)(O)O [S1P, sphingosine-1-phosphate]
TER time course after alcohol (HUVEC; 50 mM alcohol for 5 minutes, then 1 μM S1P): rapidly rise to the previously established baseline levels
reestablishing baseline TER faster than cells treated with vehicle (recovery time) (HUVEC; 50 mM alcohol for 5 minutes, then 1 μM S1P or vehicle): about 30 minutes
time to restore the barrier (HUVEC; after alcohol, FIG. 6A): about 5 min
extravasation of FITC-albumin [6, 12]: marked reduction
mean IOI in the extravascular space vs FITC-albumin infusion alone [6, 12]: significantly lower
recovery of MAP during resuscitation ([7]; alcohol-intoxicated rats, 0.1 mg/kg S1P within lactated Ringer's resuscitation fluid): same impaired recovery of MAP
MAP higher than alcohol-intoxicated animals that received standard fluids [8]: 20-25 mm Hg

maximal decline in TER from baseline (HUVEC; 50 and 100 mM alcohol vs vehicle): significant
TER of the monolayer (HUVEC; alcohol 20, 50 or 100 mM): immediate decline in the TER
maximal decline in TER from baseline (HMVEC-c; HMVEC-c, 50 and 100 mM alcohol vs vehicle): significant
TER of the monolayer (HMVEC-c; HMVEC-c, alcohol 20, 50 or 100 mM): immediate decline in the TER
mean maximal change in IOI in the extravascular space adjacent to postcapillary venules ([6]; 2.5 g/kg alcohol intragastric vs water control rats): significantly higher
mean arteriolar diameter of third-order arterioles ([6]; 2.5 g/kg alcohol vs control groups): no significant difference
recovery of MAP during the resuscitation phase ([7]; 2.5 g/kg alcohol vs water): significantly blunted
baseline MAP [7, 13]: significantly lower
total blood volume shed to achieve the 40-60 mm Hg target MAP (TBR) [7, 13]: significantly less
mean 60-minute IOI (printed RN) in the extravascular space ([9]; alcohol-HSR rats vs water-HSR rats): significantly higher
mean 60-minute IOI in the extravascular space ([9]; alcohol-sham rats vs water-sham rats): significantly higher
BAC [10]: significantly higher
Compound: CCO [alcohol]
